Broadly, the EC50 is the concentration that produces a half-maximal response. The low end stands for a more potent agent, the high end for a less potent agent. In general, CC50 refers to the concentration at which the toxic effect on the cells reaches its halfway point. High values mean lower toxicity to the cells, low ones greater toxicity to the cells.

One data set deals with HCMV. The data set is described as follows: Anti-HCMV cytopathogenicity test. The class given is cell-based, human cytomegalovirus. The note with it: for EC50: Human betaherpesvirus 5, 144 h, inhibition of CPE by 50% in HCMV-infected HELF cells, M.O.I. 0.001–0.002, 6 days; for SI HCMV: selectivity index = CC50 (HELF)/EC50 (HCMV). The method, then: (§1) Anti-HCMV (Anti-Human Cytomegalovirus) and anti-MCMV (Anti-Murine Cytomegalovirus) cytopathogenicity tests: The test compounds were employed as 50 millimolar (mM) solutions in dimethyl sulphoxide (DMSO). Ganciclovir, foscarnet and cidofovir served as reference compounds. Following the addition of in each case 2 μl of the 50, 5, 0.5 and 0.05 mM DMSO stock solutions to in each case 98μ of cell culture medium in row […], in duplicate determinations, 1:2 dilutions with in each case 50 μl of medium were prepared up to row 11 of the 96-well plate. The wells in rows 1 and 12 each contained 50 μl of medium. 150 μl of a suspension of 1×10^4 cells (human lung fibroblasts [HELF]) (row 1=cell control) or, in rows 2-12, a mixture of HCMV-infected and non-infected HELF cells (M.O.I.=0.001-0.002), i.e. 1-2 infected cells per 1000 non-infected cells, were then pipetted into each of the wells. Row 12 (without substance) served as virus control. The final test concentrations were 250-0.0005 μM. The plates were incubated at 37° C./5% CO2 for 6 days, i.e. until all cells in the virus controls had been infected (100% cytopathogenic effect [CPE]). The wells were then fixed and stained by adding a mixture of Formalin and Giemsa Stain (30 minutes), washed with doubly distilled water and dried in a drying cabinet at 50° C. The plates were then evaluated visually using an overhead microscope (plaque multiplier from Technomara). From the test plates, the following data were determined: EC50 (HCMV)=substance concentration in μM which inhibits the CPE (cytopathic effect) by 50% compared to the untreated virus control; SI (selectivity index)=CC50 (HELF)/EC50 (HCMV).
In general terms: Protection from cytopathic effect is a common read-out in antiviral testing.

The nature of data set [1]: Cytotoxicity on HELF cells in the anti-HCMV cytopathogenicity test. It is filed as cell-based. Particulars: human lung fibroblasts (HELF cells), 6 days incubation, visual evaluation. The method, then: as §1, with “The” for “Anti-HCMV (Anti-Human Cytomegalovirus) and anti-MCMV (Anti-Murine Cytomegalovirus) cytopathogenicity tests: The”, “CC50 (HELF)=substance” for “EC50 (HCMV)=substance”, “at which,” for “which inhibits the CPE (cytopathic effect) by 50%”, “cell control, no visible cytostatic effects on the cells were noticeable;” for “virus control; SI (selectivity index)=CC50 (HELF)/EC50 (HCMV).”

A further data set deals with MCMV. Briefly: Anti-MCMV cytopathogenicity test. The class given is cell-based, murine cytomegalovirus. Particulars: for EC50: Murid betaherpesvirus 1, 120 h, MCMV-infected 3T3 mouse cells, M.O.I. 0.05–0.1, 5 days; for SI MCMV: selectivity index, 3T3 CC50 / MCMV EC50. The method, then:
Anti-HCMV (Anti-Human Cytomegalovirus) and anti-MCMV (Anti-Murine Cytomegalovirus) cytopathogenicity tests:
(§2) The test compounds were employed as 50 millimolar (mM) solutions in dimethyl sulphoxide (DMSO). Ganciclovir, foscarnet and cidofovir served as reference compounds. Following the addition of in each case 2 μl of the 50, 5, 0.5 and 0.05 mM DMSO stock solutions to in each case 98μ of cell culture medium in row 2 A-H, in duplicate determinations, 1:2 dilutions with in each case 50 μl of medium were prepared up to row 11 of the 96-well plate. The wells in rows 1 and 12 each contained 50 μl of medium. 150 μl of a suspension of 1×10^4 cells (human lung fibroblasts [HELF]) (row 1=cell control) or, in rows 2–12, a mixture of HCMV-infected and non-infected HELF cells (M.O.I.=0.001–0.002), i.e. 1–2 infected cells per 1000 non-infected cells, were then pipetted into each of the wells. Row 12 (without substance) served as virus control. The final test concentrations were 250–0.0005 μM. The plates were incubated at 37° C./5% CO2 for 6 days, i.e. until all cells in the virus controls had been infected (100% cytopathogenic effect [CPE]). The wells were then fixed and stained by adding a mixture of Formalin and Giemsa Stain (30 minutes), washed with doubly distilled water and dried in a drying cabinet at 50° C. The plates were then evaluated visually using an overhead microscope (plaque multiplier from Technomara).
(§3) Compared to the process described above for HCMV, the anti-MCMV test was carried out with the following changes: a cell-free virus suspension was mixed with a concentrated cell suspension (3T3 mouse cells) and incubated for 15 minutes for adsorption of the viruses, and the suspension was then diluted with medium to 1.3×10^5 cells/ml with a final multiplicity of infection (M.O.I.) of from 0.05–0.1, and in each case 150 μl were dispensed into the wells. The incubation time was 5 days.

Data set [2] can be described thus: Cytotoxicity on 3T3 cells in the anti-MCMV cytopathogenicity test. The class given is cell-based. Particulars: mouse, 3T3 mouse cells, 5 days incubation. The method, then: as §2
CC50 (HELF)=substance concentration in μM at which, compared to the untreated cell control, no visible cytostatic effects on the cells were noticeable;
as §3

The structures appear in SMILES notation. Where only a bound is given, the exact number is not on record here.

On to `CC1(C(=O)Nc2cccc(NS(=O)(=O)c3ccc(-c4noc(-c5cscn5)n4)cc3)c2)CC1` [Example 7, 1-Methyl-N-{3-[({4-[5-(1,3-thiazol-4-yl)-1,2,4-oxadiazol-3-yl]phenyl}sulphonyl)-amino]phenyl}cyclopropanecarboxamide], for which, in the data set on HCMV, a half-maximal response (EC50) required 25 nM and the “SI HCMV” value is 1880. In addition, the CC50 at 6 days in data set [1] amounted to 47000 nM. Moreover, in the data set with MCMV, the concentration for a half-maximal effect (EC50) amounted to 25 nM and the “SI MCMV” value was determined as 480. The half-maximal cytotoxic concentration (CC50) at 5 days in data set [2] was 12000 nM.

As for `CC1(C(=O)Nc2cccc(NS(=O)(=O)c3ccc(-c4noc(-c5csc(CN)n5)n4)cc3)c2)CC1` [Example 12, N-(3-{[(4-{5-[2-(Aminomethyl)-1,3-thiazol-4-yl]-1,2,4-oxadiazol-3-yl}phenyl)-sulphonyl]amino}phenyl)-1-methylcyclopropanecarboxamide], in the data set on HCMV, the midpoint of the response, the EC50, lay at 58 nM and the “SI HCMV” value is 241. This molecule came in with a CC50 at 6 days in data set [1] of 14000 nM. In the data set on MCMV, the response was half-maximal at 58 nM (EC50) and the “SI MCMV” value was 121. Also, the CC50 at 5 days in data set [2] was 7000 nM.

For `CC1(C(=O)Nc2cccc(NS(=O)(=O)c3ccc(-c4noc(-c5csc(N)n5)n4)cc3)c2)CC1` [Example 4], in the data set with HCMV, a half-maximal effect (EC50) was put at 10 nM and the “SI HCMV” value is above 6300. The same molecule yielded a CC50 at 6 days in data set [1] above 63000 nM. Moreover, in the data set on MCMV, the response was half-maximal at 15 nM (EC50) and the “SI MCMV” value is on record as 733. In data set [2], the half-maximal cytotoxic concentration (CC50) at 5 days was determined as 11000 nM.

Take `CC(C)(CF)C(=O)Nc1cccc(NS(=O)(=O)c2ccc(-c3noc(-c4cccc(N)n4)n3)cc2)c1` [Example 135, N-{3-[({4-[5-(6-Amino-2-pyridinyl)-1,2,4-oxadiazol-3-yl]phenyl}sulphonyl)amino]-phenyl}-3-fluoro-2,2-dimethylpropanamide]: in the data set on HCMV, the half-maximal effective concentration (EC50) worked out at 5.2 nM and the “SI HCMV” value was found to be 9039. In data set [1], half-maximal cytotoxicity (CC50 at 6 days) was put at 47000 nM. Also, in the data set with MCMV, the midpoint of the response, the EC50, lay at 11 nM and the “SI MCMV” value amounted to 273. Besides, in data set [2], half-maximal cytotoxicity (CC50 at 5 days) was put at 3000 nM.

In the case of `CC(C)(CF)C(=O)Nc1ccc(NS(=O)(=O)c2cccc(-c3noc(-c4ccccc4)n3)c2)cc1` [Example 13, 3-Fluoro-2,2-dimethyl-N-[4-({[3-(5-phenyl-1,2,4-oxadiazol-3-yl)phenyl]sulphonyl}-amino)phenyl]propanamide], in the data set on HCMV, a half-maximal effect (EC50) was put at 40 nM and the “SI HCMV” value is on record as below 200. The same molecule gave a CC50 at 6 days in data set [1] below 8000 nM. In addition, in the data set on MCMV, a half-maximal effect (EC50) was put at 30 nM and the “SI MCMV” value was below 533. The molecule also returned a cytotoxic concentration (CC50) at 5 days in data set [2] below 16000 nM.

As for `CC1(C(=O)Nc2cccc(NS(=O)(=O)c3ccc(-c4noc(-c5nccc6ccccc56)n4)cc3)c2)CC1` [Example 10, N-{3-[({4-[5-(1-Isoquinolinyl)-1,2,4-oxadiazol-3-yl]phenyl}sulphonyl)-amino]phenyl}-1-methylcyclopropanecarboxamide], in the data set with HCMV, the 50% effective concentration (EC50) was 8 nM and the “SI HCMV” value is given as above 488. In addition, the CC50 at 6 days in data set [1] was above 3900 nM. For the same molecule, in the data set with MCMV, the response was half-maximal at 7 nM (EC50) and the “SI MCMV” value is listed as above 975. For the same molecule, the CC50 at 5 days in data set [2] was above 7800 nM.

Turning to `Cc1cc(-c2nc(-c3ccc(S(=O)(=O)Nc4cccc(NC(=O)C5(C)CC5)c4)cc3)no2)[nH]n1` [Example 6, 1-Methyl-N-{3-[({4-[5-(3-methyl-1H-pyrazol-5-yl)-1,2,4-oxadiazol-3-yl]phenyl}-sulphonyl)amino]phenyl}cyclopropanecarboxamide], in the data set on HCMV, it took 20 nM to reach a half-maximal effect (EC50) and the “SI HCMV” value amounted to 2053. In data set [1], this molecule came in with a CC50 at 6 days of 39000 nM. Also, in the data set on MCMV, the EC50 turned out to be 41 nM and the “SI MCMV” value is on record as 71. This molecule had a CC50 at 5 days in data set [2] of 2900 nM.

As for `CC1(C(=O)Nc2ccc(NS(=O)(=O)c3cccc(-c4nnc(-c5ccccn5)s4)c3)cc2)CC1` [Example 131, 1-Methyl-N-{4-[({3-[5-(2-pyridinyl)-1,3,4-thiadiazol-2-yl]phenyl}sulphonyl)amino]phenyl}cyclopropanecarboxamide], in the data set with HCMV, it took 20 nM to reach a half-maximal effect (EC50) and the “SI HCMV” value is above 1555. The cytotoxic concentration (CC50) at 6 days in data set [1] is above 28000 nM.

The values above are taken from patent US7115612B2, “Arylsulfonamides as antiviral agents” (Bayer Aktiengesellschaft, priority 2001, dated 2006).
